Where “and” joins values, the source holds several entries; their conditions need not be identical. Identical values can stand only once.
Assay: DLS particle size tracking around spray drying (nanoemulsion, solubilized carrier, pre-spray dried mixture, re-hydrated powder)
Type: physicochemical
Details: solubilized carrier alone, 0.4 g/ml
Protocol: Particle size of all nanoemulsions was measured in water solution at 25° C. using dynamic light scattering (DLS). All samples in the present disclosure have been analyzed at a dilution of 1/20 in purified water using a LiteSizer™ (Anton Paar GmbH, Germany).
The resulting spray dried emulsion powder was analyzed by performing a rehydration and then performing a visual inspection for turbidity and DLS analysis for particle size tracking of the generated emulsion (see Table 9).

OC[C@@H](O)[C@@H](O)[C@H](O)[C@H](O)CO [Pearlitol (Mannitol), Mannitol]
Particle Size Carrier: 287 nm, poor signal and 225 nm, poor signal

Reference: US20220296526A1, “CANNABINOID COMPOSITIONS, METHODS OF MAKING SAME AND USES THEREOF” (HEXO OPERATIONS INC., priority 2019, published 2022)
